Assay results: PubChem BioAssay AID248 (DTP/NCI, 2004)
Toxic doses and inconclusive results are not listed. No stated cut-off is given here; in the data, active means T/C of 150% or more; inactive means T/C below 125%.

Tested on: L1210 leukemia ip in BDF1 mice, survival T/C
Assay: NCI In Vivo Anticancer Drug Screen. Data for tumor model L1210 Leukemia (intraperitoneal) in B6D2F1 (BDF1) mice
Details: endpoint: mean survival time, higher = longer survival
Method in brief: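 Each compound was tested against a transplantable tumor grown in mice. The endpoint was survival, with treated animals benchmarked against vehicle controls as a simple ratio.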

[1] = dose: 100.0 mg/kg/injection, schedule: Q04DX003 (ip), vehicle: saline with Tween-80
[2] = dose: 200.0 mg/kg/injection, schedule: Q04DX003 (ip), vehicle: saline with Tween-80
[3] = dose: 400.0 mg/kg/injection, schedule: Q04DX003 (ip), vehicle: saline with Tween-80
[4] = dose: 100.0 mg/kg/injection, schedule: Q01DX001 (ip), vehicle: saline
[5] = dose: 200.0 mg/kg/injection, schedule: Q01DX001 (ip), vehicle: saline
[6] = dose: 25.0 mg/kg/injection, schedule: Q04DX003 (ip), vehicle: Klucel (hydroxypropylcellulose) (HPC)
[7] = dose: 100.0 mg/kg/injection, schedule: Q01DX001 (ip), vehicle: Klucel (hydroxypropylcellulose) (HPC)
[8] = dose: 200.0 mg/kg/injection, schedule: Q01DX001 (ip), vehicle: Klucel (hydroxypropylcellulose) (HPC)
[9] = dose: 400.0 mg/kg/injection, schedule: Q01DX001 (ip), vehicle: Klucel (hydroxypropylcellulose) (HPC)
[10] = dose: 100.0 mg/kg/injection, schedule: Q01DX009 (ip), vehicle: saline with Tween-80
[11] = dose: 100.0 mg/kg/injection, schedule: Q01DX009 (ip), vehicle: Klucel (hydroxypropylcellulose) (HPC)
[12] = dose: 200.0 mg/kg/injection, schedule: Q01DX009 (ip), vehicle: Klucel (hydroxypropylcellulose) (HPC)
[13] = dose: 400.0 mg/kg/injection, schedule: Q01DX009 (ip), vehicle: Klucel (hydroxypropylcellulose) (HPC)
[14] = dose: 100.0 mg/kg/injection, schedule: Q04DX003 (ip), vehicle: Klucel (hydroxypropylcellulose) (HPC)
[15] = dose: 200.0 mg/kg/injection, schedule: Q04DX003 (ip), vehicle: Klucel (hydroxypropylcellulose) (HPC)
[16] = dose: 400.0 mg/kg/injection, schedule: Q04DX003 (ip), vehicle: Klucel (hydroxypropylcellulose) (HPC)
[17] = dose: 50.0 mg/kg/injection, schedule: Q04DX003 (ip), vehicle: Klucel (hydroxypropylcellulose) (HPC)
[18] = dose: 200.0 mg/kg/injection, schedule: Q01DX009 (ip), vehicle: saline with Tween-80
[19] = dose: 400.0 mg/kg/injection, schedule: Q01DX009 (ip), vehicle: saline with Tween-80

Measured: T/C

Cc1cc(CCCC(=O)O)c(C)s1
inactive: [1] 101 % of control | [2] 104 % of control | [3] 101 % of control

COC(=O)C(Br)(Br)C(=O)OC
inactive: dose: 12.5 mg/kg/injection, schedule: Q04DX002 (ip), vehicle: saline with Tween-80 97 % of control | dose: 25.0 mg/kg/injection, schedule: Q04DX002 (ip), vehicle: saline with Tween-80 105 % of control | dose: 50.0 mg/kg/injection, schedule: Q04DX002 (ip), vehicle: saline with Tween-80 101 % of control

CCN(CC)CCSC(=O)c1ccc([N+](=O)[O-])cc1
inactive: [4] 98 % of control | [5] 104 % of control

O=C(O)C1CCCN1Cc1cc2ccccc2c2ccccc12 (stereo not drawn)
inactive: dose: 50.0 mg/kg/injection, schedule: Q01DX001 (ip), vehicle: saline 112 % of control | [4] 96 % of control | [5] 96 % of control | dose: 400.0 mg/kg/injection, schedule: Q01DX001 (ip), vehicle: saline 96 % of control

CCN(CC)c1ccc(/C=C2/C=Cc3ccccc32)cc1
inactive: dose: 100.0 mg/kg/injection, schedule: Q01DX001 (ip), vehicle: carboxymethylcellulose (CMC) 92 % of control | dose: 200.0 mg/kg/injection, schedule: Q01DX001 (ip), vehicle: carboxymethylcellulose (CMC) 90 % of control | dose: 400.0 mg/kg/injection, schedule: Q01DX001 (ip), vehicle: carboxymethylcellulose (CMC) 95 % of control

CC(=O)N(C1=CC(=O)c2ccccc2C1=O)c1ccc(Cl)cc1
inactive: dose: 75.0 mg/kg/injection, schedule: Q01DX001 (ip), vehicle: carboxymethylcellulose (CMC) 98 % of control | dose: 150.0 mg/kg/injection, schedule: Q01DX001 (ip), vehicle: carboxymethylcellulose (CMC) 95 % of control | dose: 300.0 mg/kg/injection, schedule: Q01DX001 (ip), vehicle: carboxymethylcellulose (CMC) 97 % of control

CCOC(=O)C(=O)C1CCNC1=O (stereo not drawn)
inactive: dose: 12.5 mg/kg/injection, schedule: Q04DX003 (ip), vehicle: saline with Tween-80 92 % of control | dose: 25.0 mg/kg/injection, schedule: Q04DX003 (ip), vehicle: saline with Tween-80 95 % of control | dose: 50.0 mg/kg/injection, schedule: Q04DX003 (ip), vehicle: saline with Tween-80 97 % of control

CC(=O)C1=CC(=O)NC(=O)C1C(=O)CC(C)C (stereo not drawn)
inactive: dose: 0.78 mg/kg/injection, schedule: Q01DX009 (ip), vehicle: Klucel (hydroxypropylcellulose) (HPC) 97 % of control | dose: 1.56 mg/kg/injection, schedule: Q01DX009 (ip), vehicle: Klucel (hydroxypropylcellulose) (HPC) 97 % of control | dose: 3.12 mg/kg/injection, schedule: Q01DX009 (ip), vehicle: Klucel (hydroxypropylcellulose) (HPC) 93 % of control | dose: 6.25 mg/kg/injection, schedule: Q01DX009 (ip), vehicle: Klucel (hydroxypropylcellulose) (HPC) 98 % of control | dose: 12.5 mg/kg/injection, schedule: Q01DX009 (ip), vehicle: Klucel (hydroxypropylcellulose) (HPC) 98 % of control | dose: 12.5 mg/kg/injection, schedule: Q04DX003 (ip), vehicle: Klucel (hydroxypropylcellulose) (HPC) 98 % of control | [6] 96 % of control

O=C(CCCCl)CC(O)(C(F)(F)Cl)C(F)(F)Cl
inactive: [1] 104 % of control | [2] 102 % of control

CCn1c(=S)[nH]c2ccccc2c1=O
inactive: dose: 100.0 mg/kg/injection, schedule: Q04DX002 (ip), vehicle: saline with Tween-80 98 % of control | dose: 200.0 mg/kg/injection, schedule: Q04DX002 (ip), vehicle: saline with Tween-80 109 % of control | dose: 400.0 mg/kg/injection, schedule: Q04DX002 (ip), vehicle: saline with Tween-80 102 % of control

Cc1ccc(Cl)cc1NC(=O)C(C)Oc1ccccc1 (stereo not drawn)
inactive: dose: 100.0 mg/kg/injection, schedule: Q04DX002 (ip), vehicle: Klucel (hydroxypropylcellulose) (HPC) 89 % of control | dose: 200.0 mg/kg/injection, schedule: Q04DX002 (ip), vehicle: Klucel (hydroxypropylcellulose) (HPC) 89 % of control | dose: 400.0 mg/kg/injection, schedule: Q04DX002 (ip), vehicle: Klucel (hydroxypropylcellulose) (HPC) 92 % of control

Cc1ccc(S(=O)(=O)Nc2ccc([N+](=O)[O-])cc2)cc1
inactive: [7] 97 % of control | [8] 97 % of control | [9] 113 % of control

CC1CCC2C(C1)N(C(C)C)OC2(C)C (stereo not drawn)
inactive: dose: 50.0 mg/kg/injection, schedule: Q01DX009 (ip), vehicle: saline with Tween-80 104 % of control | [10] 98 % of control | [1] 108 % of control | [2] 102 % of control

N#CCc1c[nH]c2ccc(OCc3ccccc3)cc12
inactive: dose: 50.0 mg/kg/injection, schedule: Q01DX009 (ip), vehicle: other 100 % of control | dose: 100.0 mg/kg/injection, schedule: Q01DX009 (ip), vehicle: other 94 % of control | dose: 200.0 mg/kg/injection, schedule: Q01DX009 (ip), vehicle: other 108 % of control

COC(=O)c1ccc(OC(=O)Nc2ccc(Br)cc2)cc1
inactive: [11] 102 % of control | [12] 92 % of control | [13] 92 % of control

CS(=O)(=O)OC1CCCCC1Oc1ccc(Br)cc1 (stereo not drawn)
inactive: [7] 106 % of control | [14] 101 % of control | [8] 104 % of control | [15] 113 % of control | [9] 103 % of control | [16] 98 % of control

COc1ccc(CCN2CC(=O)NC(=O)C2)cc1OC
inactive: dose: 25.0 mg/kg/injection, schedule: Q01DX009 (ip), vehicle: Klucel (hydroxypropylcellulose) (HPC) 95 % of control | [6] 104 % of control | dose: 50.0 mg/kg/injection, schedule: Q01DX009 (ip), vehicle: Klucel (hydroxypropylcellulose) (HPC) 96 % of control | [17] 104 % of control | [11] 101 % of control | [14] 101 % of control | [12] 101 % of control | [15] 101 % of control | [13] 101 % of control | [16] 109 % of control

C=CCOc1ccnc(N)n1
inactive: [10] 90 % of control | [1] 105 % of control | [18] 95 % of control | [2] 100 % of control | [19] 100 % of control | [3] 102 % of control

O=S1(=O)N=C(Cl)c2ccccc21
inactive: [17] 105 % of control | [14] 108 % of control | [15] 97 % of control

CCCCCCC(O)CCCC (stereo not drawn)
inactive: [10] 117 % of control | [14] 91 % of control | [18] 110 % of control | [15] 88 % of control | [19] 122 % of control | [16] 88 % of control

CC(=O)OC(OC(C)=O)c1ccc([N+](=O)[O-])c([N+](=O)[O-])c1
inactive: dose: 12.5 mg/kg/injection, schedule: Q01DX001 (ip), vehicle: carboxymethylcellulose (CMC) 97 % of control | dose: 25.0 mg/kg/injection, schedule: Q01DX001 (ip), vehicle: carboxymethylcellulose (CMC) 97 % of control | dose: 50.0 mg/kg/injection, schedule: Q01DX001 (ip), vehicle: carboxymethylcellulose (CMC) 94 % of control
